Where a name gives a salt, the structure may show the parent alone. Read-outs that look alike come from different tables or passages of the source.
Experiments:
Type in all cases: cell-based
E. coli UBMS 88-1 Tet B = assay: microbe, parasite or virus in culture; conditions: Escherichia coli, UBMS881TETB, 18 h
[1] = system: E. coli MC 4100 Tet sens.; assay: MIC, agar dilution; conditions: Escherichia coli, 18 h
E. coli PRP1 Tet A = assay: microbe, parasite or virus in culture; conditions: Escherichia coli, PRP1TETA, 18 h
E. coli J3272 Tet C = assay: microbe, parasite or virus in culture; conditions: Escherichia coli, J3272TETC, 18 h
E. coli UBMS 89-1 Tet M = assay: microbe, parasite or virus in culture; conditions: Escherichia coli, UBMS891TETM, 18 h
E. coli J2175 = assay: MIC, agar dilution; conditions: Escherichia coli, 18 h, read-out: MIC
E. coli BAJ9003 IMP MUT = assay: microbe, parasite or virus in culture; conditions: Escherichia coli, BAJ9003IMPMUT, 18 h
E. coli UBMS 90-4 Tet M = assay: microbe, parasite or virus in culture; conditions: Escherichia coli, UBMS904TETM, 18 h
E. coli UBMS 90-5 = assay: microbe, parasite or virus in culture; conditions: Escherichia coli, UBMS905, 18 h
E. coli #311 (MP) = assay: MIC, agar dilution; conditions: Escherichia coli, 18 h
E. coli ATCC 25922 = assay: MIC, agar dilution; conditions: Escherichia coli, ATCC25922, 18 h
E. coli J3272 Tet D = assay: microbe, parasite or virus in culture; conditions: Escherichia coli, J3272TETD, 18 h
S. marcescens FPOR 8733 = assay: MIC, agar dilution; conditions: Serratia marcescens, FPOR8733, 18 h
[2] = system: X. maltophilia NEMC 87210; assay: MIC, agar dilution; conditions: Stenotrophomonas maltophilia, NEMC87210, 18 h
[3] = system: Ps. aeruginosa ATCC 27853; assay: MIC, agar dilution; conditions: Pseudomonas aeruginosa, ATCC27853, 18 h
S. aureus NEMC 8769 = assay: MIC, agar dilution; conditions: Staphylococcus aureus, NEMC8769, 18 h
S. aureus UBMS 88-4 = assay: MIC, agar dilution; conditions: Staphylococcus aureus, UBMS884, 18 h
[4] = system: S. aureus UBMS 88-5 Tet M; assay: microbe, parasite or virus in culture; conditions: Staphylococcus aureus, UBMS885TETM, 18 h
[5] = system: S. aureus UBMS 88-7 Tet K; assay: microbe, parasite or virus in culture; conditions: Staphylococcus aureus, UBMS887TETK, 18 h
[6] = system: S. aureus UBMS 90-1 Tet M; assay: microbe, parasite or virus in culture; conditions: Staphylococcus aureus, UBMS901TETM, 18 h
S. aureus UBMS 90-3 = assay: MIC, agar dilution; conditions: Staphylococcus aureus, UBMS903, 18 h
[7] = system: S. aureus UBMS 90-2 Tet M; assay: microbe, parasite or virus in culture; conditions: Staphylococcus aureus, UBMS902TETM, 18 h
S. aureus IVES 2943 = assay: MIC, agar dilution; conditions: Staphylococcus aureus, IVES2943, 18 h
S. aureus ROSE (MP) = assay: MIC, agar dilution; conditions: Staphylococcus aureus, 18 h
S. aureus SMITH (MP) = assay: MIC, agar dilution; conditions: Staphylococcus aureus, 18 h
S. aureus IVES 1983 = assay: MIC, agar dilution; conditions: Staphylococcus aureus, IVES1983, 18 h
S. aureus ATCC 29213 = assay: MIC, agar dilution; conditions: Staphylococcus aureus, ATCC29213, 18 h, S. aureus ATCC 29213
[8] = system: S. hemolyticus AVHAH 88-3; assay: MIC, agar dilution; conditions: Streptococcus pyogenes, AVHAH883, 18 h
Enterococcus 12201 = assay: MIC, agar dilution; conditions: Enterococcus, 12201, 18 h
E. faecalis ATCC 29212 = assay: MIC, agar dilution; conditions: Enterococcus faecalis, ATCC29212, 18 h
[9] = system: E. coli MC 4100 TNIOC Tet B; assay: microbe, parasite or virus in culture; conditions: Escherichia coli, 18 h
[10] = system: E. coli UBMS 89-2 Tet sens.; assay: MIC, agar dilution; conditions: Escherichia coli, 18 h; E. coli UBMS 89-2 Tet sens.; read-out: MIC
[11] = E. coli UBMS 90-5, read-out: MIC
[12] = E. coli #311 (MP), read-out: MIC
[13] = S. aureus IVES 1983, read-out: MIC
[14] = Ps. aeruginosa ATCC 27853, read-out: MIC

Structure (SMILES)	MIC (E. coli UBMS 88-1 Tet B) [µg/mL]	MIC [1] [µg/mL]	MIC (E. coli PRP1 Tet A) [µg/mL]	MIC (E. coli J3272 Tet C) [µg/mL]	MIC (E. coli UBMS 89-1 Tet M) [µg/mL]	MIC (E. coli J2175) [µg/mL]	MIC (E. coli BAJ9003 IMP MUT) [µg/mL]	MIC (E. coli UBMS 90-4 Tet M) [µg/mL]	MIC (E. coli UBMS 90-5; [11]) [µg/mL]	MIC (E. coli #311 (MP); [12]) [µg/mL]	MIC (E. coli J3272 Tet D) [µg/mL]	MIC [2] [µg/mL]	MIC (S. aureus NEMC 8769) [µg/mL]	MIC (S. aureus UBMS 88-4) [µg/mL]	MIC [4] [µg/mL]	MIC [5] [µg/mL]	MIC [6] [µg/mL]	MIC [7] [µg/mL]	MIC (S. aureus ATCC 29213) [µg/mL]	MIC [3, 14] [µg/mL]	further results
CN(C)[C@@H]1C(O)=C(C(N)=O)C(=O)[C@@]2(O)C(O)=C3C(=O)c4c(ccc(NC(=O)CNCc5ccccc5)c4O)CC3CC12 (stereo partly drawn) [J, [4S-(4alpha,12aalpha)]-4-(Dimethylamino)-1,4,4a,5,5a,6,11,12a-octahydro-3,10,12,12a-tetrahydroxy-1,11-dioxo-9-[[[(phenylmethyl)amino]acetyl]amino]-2-naphthacenecarboxamide dihydrochloride]	4	0.5	4	4	2	4	0.5	4	4	4	4	16	1	1	2	4	4	1	1	–	MIC (E. coli ATCC 25922; read-out: MIC): 4 µg/mL; MIC (S. marcescens FPOR 8733; read-out: MIC): > 32 µg/mL; MIC [3]: > 32 µg/mL; MIC (S. aureus UBMS 90-3): 0.5 µg/mL; MIC (S. aureus IVES 2943; S. aureus IVES 2943, read-out: MIC): 4 µg/mL; MIC (S. aureus ROSE (MP); read-out: MIC): 8 µg/mL; MIC (S. aureus SMITH (MP)): 0.5 µg/mL; MIC (S. aureus IVES 1983; [13]): 4 µg/mL; MIC ([8]; S. hemolyticus AVHAH 88-3, read-out: MIC): 4 µg/mL; MIC (Enterococcus 12201): 2 µg/mL; MIC (E. faecalis ATCC 29212): 0.25 µg/mL
CN(C)[C@@H]1C(O)=C(C(N)=O)C(=O)[C@@]2(O)C(O)=C3C(=O)c4c(ccc(NC(=O)CNCc5cccs5)c4O)CC3CC12 (stereo partly drawn) [L, [4S-(4-alpha,12aalpha)]-4-(Dimethylamino)-1,4,4a,5,5a,6,11,12a-octahydro-3,10,12,12a-tetrahydroxy-1,11-dioxo-9-[[[(2-thienylmethyl)amino]acetyl]amino]-2-naphthacenecarboxamide dihydrochloride]	32	8	16	32	8	16	4	8	16	16	16	> 32	8	8	8	16	8	8	8	> 32	MIC [9]: 32 µg/mL; MIC (E. coli ATCC 25922): 8 µg/mL; MIC (S. marcescens FPOR 8733): > 32 µg/mL; MIC (S. aureus UBMS 90-3; S. aureus UBMS 90-3): 4 µg/mL; MIC (S. aureus IVES 2943): 16 µg/mL; MIC (S. aureus ROSE (MP)): 32 µg/mL; MIC (S. aureus SMITH (MP); S. aureus SMITH (MP)): 4 µg/mL; MIC (S. aureus IVES 1983): 16 µg/mL; MIC [8]: 8 µg/mL; MIC (Enterococcus 12201; Enterococcus 12201, read-out: MIC): 8 µg/mL
CCCCCNCC(=O)Nc1ccc2c(c1O)C(=O)C1=C(O)[C@]3(O)C(=O)C(C(N)=O)=C(O)[C@@H](N(C)C)C3CC1C2 (stereo partly drawn) [K, [4S-(4alpha,12aalpha)]-4-(Dimethylamino)-1,4,4a,5,5a,6,11,12a-octahydro-3,10,12,12a-tetrahydroxy-1,11-dioxo-9-[[(pentylamino)acetyl]amino]-2-naphthacenecarboxamide monohydrochloride]	1	0.5	0.5	0.5	–	0.5	–	–	–	–	0.5	1	0.12	–	–	2	–	–	–	32	MIC [9]: 0.5 µg/mL; MIC (E. coli UBMS 90-4 Tet M; E. coli UBMS 90-4 Tet M): 0.5 µg/mL; MIC (E. coli UBMS 90-5): 0.5 µg/mL; MIC (E. coli #311 (MP)): 0.5 µg/mL; MIC (E. coli ATCC 25922): 0.5 µg/mL; MIC (S. marcescens FPOR 8733; read-out: MIC): 4 µg/mL; MIC ([4]; S. aureus UBMS 88-5 Tet M): 0.5 µg/mL; MIC ([6]; S. aureus UBMS 90-1 Tet M): 0.5 µg/mL; MIC (S. aureus IVES 2943): 2 µg/mL; MIC (S. aureus ROSE (MP); read-out: MIC): 8 µg/mL; MIC (S. aureus IVES 1983): 2 µg/mL; MIC (S. aureus ATCC 29213; read-out: MIC): 0.5 µg/mL; MIC [8]: 2 µg/mL
CNCC(=O)Nc1ccc2c(c1O)C(=O)C1=C(O)[C@]3(O)C(=O)C(C(N)=O)=C(O)[C@@H](N(C)C)C3CC1C2 (stereo partly drawn) [F, [4S-(4alpha,12aalpha)]-4-(Dimethylamino)-1,4,4a,5,5a,6,11,12a-octahydro-3,10,12,12a-tetrahydroxy-9-[[(methylamino)acetyl]amino]-1,11-dioxo-2-naphthacenecarboxamide dihydrochloride]	1	–	4	4	0.5	0.5	0.5	0.5	0.5	0.5	0.5	16	0.25	0.5	1	16	0.5	0.5	0.5	32	MIC [10]: 1 µg/mL; MIC (E. coli ATCC 25922; read-out: MIC): 0.5 µg/mL; MIC (S. marcescens FPOR 8733): 4 µg/mL; MIC (S. aureus UBMS 90-3): 0.5 µg/mL; MIC (S. aureus IVES 2943): > 32 µg/mL; MIC (S. aureus ROSE (MP)): > 32 µg/mL; MIC (S. aureus SMITH (MP)): 0.5 µg/mL; MIC (S. aureus IVES 1983; [13]): 16 µg/mL; MIC [8]: 1 µg/mL; MIC (Enterococcus 12201): 0.5 µg/mL; MIC (E. faecalis ATCC 29212): 0.5 µg/mL

Reference: patent US5567692A, “9-[(substituted glycyl) amido)]-6-demethyl-6-deoxytetracyclines” (priority 1995, dated 1996)
